One assay deals with human CYP11B2 (Homo sapiens (Human), UniProt P19099). The experiment in a line: G-402 cellular enzyme assay, human CYP11B2 (aldosterone release, HTRF). The settings on record: G-402 cells expressing human CYP11B2; 1 μM Deoxycorticosterone. It is filed as cell-based. The text has this: (§1) Herein we identified the use of the G-402 cell line as a host cell to ectopically express (transiently or stably) enzymes of the CYP11 family. Specifically we developed stable G-402 cells expressing ectopically human CYP11B1, human CYP11B2, human CYP11A1, cynmolgus CYP11B1 or cynomolgus CYP11B2 enzyme activity. Importantly the identified cell line G-402 expresses co-factors (adrenodoxin and adrenodoxin reductase) important for the activity of the CYP11 family and no relevant enzyme activity of the CYP11 family (in comparison to H295R cells) was detected in these cells. Therefore the G-402 cell line is uniquely suited as a host cell for the ectopic expression of enzymes from the CYP11 family.
human CYP11B2, sequence (P19099 25-503): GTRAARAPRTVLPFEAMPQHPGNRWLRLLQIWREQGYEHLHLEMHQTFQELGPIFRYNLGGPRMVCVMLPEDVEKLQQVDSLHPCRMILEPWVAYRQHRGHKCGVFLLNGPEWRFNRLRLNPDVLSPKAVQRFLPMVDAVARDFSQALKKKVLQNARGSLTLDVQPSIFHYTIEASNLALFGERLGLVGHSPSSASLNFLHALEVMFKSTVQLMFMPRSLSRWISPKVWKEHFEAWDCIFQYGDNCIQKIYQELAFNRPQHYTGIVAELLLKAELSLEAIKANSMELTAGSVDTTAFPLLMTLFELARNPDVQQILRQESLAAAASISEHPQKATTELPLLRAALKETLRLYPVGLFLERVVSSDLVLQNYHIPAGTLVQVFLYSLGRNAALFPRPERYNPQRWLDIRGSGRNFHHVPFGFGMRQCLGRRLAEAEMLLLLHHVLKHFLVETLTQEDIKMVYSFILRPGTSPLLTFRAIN
(§2) The expression plasmids contains the ORF for either huma/cyno CYP11B1 or CYP11B2 under the control of a suitable promoter (CMV-promoter) and a suitable resistance marker (neomycin). Using standard techniques the expression plasmid is transfected into G-402 cells and these cells are then selected for expressing the given resistance markers. Individual cell-clones are then selected and assessed for displaying the desired enzymatic activity using 11-Deoxycorticosterone (Cyp11B2) or 11-Deoxycortisol (Cyp11B1) as a substrate.
(§3) G-402 cells expressing CYP11 constructs were established as described above and maintained in McCoy's 5a Medium Modified, ATCC Catalog No. 30-2007 containing 10% FCS and 400 μg/ml G418 (Geneticin) at 37° C. under an atmosphere of 5% CO2/95% air. Cellular enzyme assays were performed in DMEM/F12 medium containing 2.5% charcoal treated FCS and appropriate concentration of substrate (0.3-10 uM 11-Deoxycorticosterone, 11-Deoxycortisol or Corticosterone). For assaying enzymatic activity, cells were plated onto 96 well plates and incubated for 16 h. An aliquot of the supernatant is then transferred and analyzed for the concentration of the expected product (Aldosterone for CYP11B2; Cortisol for CYP11B1). The concentrations of these steroids can be determined using HTRF assays from CisBio analyzing either Aldosterone or Cortisol.
(§4) Inhibition of the release of produced steroids can be used as a measure of the respective enzyme inhibition by test compounds added during the cellular enzyme assay. The dose dependent inhibition of enzymatic activity by a compound is calculated by means of plotting added inhibitor concentrations (x-axes) vs. measured steroid/product level (y-axes). The inhibition is then calculated by fitting the following 4-parameter sigmoidal function (Morgan-Mercer-Flodin (MMF) model) to the raw data points using the least squares method:
(§5) [formula] wherein, A is the maximum y value, B is the EC50 factor determined using XLFit, C is the minimum y value and D is the slope value.
(§6) EC50 values for compounds claimed herein were tested with the G402-based assay system described. Cyp11B2 enzyme activity was tested in presence of 1 μM Deoxycorticosterone and variable amounts of inhibitors; Cyp11B1 enzyme activity was tested in presence of 1 μM Deoxycortisol and variable amounts of inhibitors.
In general terms: Time-resolved FRET reads energy transfer from a long-lived donor to a nearby acceptor.

A further assay deals with human CYP11B1 (Homo sapiens (Human), UniProt P15538). Description: G-402 cellular enzyme assay, human CYP11B1 (cortisol release, HTRF). It is filed as cell-based. The settings on record: G-402 cells expressing human CYP11B1; 1 μM Deoxycortisol.
human CYP11B1, sequence (P15538 25-503): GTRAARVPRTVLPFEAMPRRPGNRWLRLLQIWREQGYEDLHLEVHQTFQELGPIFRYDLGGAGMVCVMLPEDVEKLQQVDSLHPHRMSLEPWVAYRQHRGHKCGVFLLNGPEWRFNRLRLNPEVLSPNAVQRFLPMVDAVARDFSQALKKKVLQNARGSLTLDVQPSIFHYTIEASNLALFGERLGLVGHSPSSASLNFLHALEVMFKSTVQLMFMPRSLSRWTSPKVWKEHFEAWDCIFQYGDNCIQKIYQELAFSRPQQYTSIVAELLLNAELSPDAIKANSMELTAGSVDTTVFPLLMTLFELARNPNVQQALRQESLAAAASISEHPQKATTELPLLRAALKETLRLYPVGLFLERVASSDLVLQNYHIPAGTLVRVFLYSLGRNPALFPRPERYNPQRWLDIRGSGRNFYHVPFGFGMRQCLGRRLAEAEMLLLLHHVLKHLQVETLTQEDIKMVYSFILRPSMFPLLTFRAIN
From the text: as §1, §2, §3, §4, §5, §6

By EC50 is commonly meant the concentration needed to bring the measured effect to its halfway point. A lower EC50 goes with higher potency in that assay. Consider `CN1C(=O)CCc2cc(-c3cncc(COc4cccc(Cl)n4)c3)ccc21` [Example 1, 6-[5-(6-Chloro-pyridin-2-yloxymethyl)-pyridin-3-yl]-1-methyl-3,4-dihydro-1H-quinolin-2-one], for which the results for the EC50 at human CYP11B2 and on human CYP11B1 were 0.2 nM and 9.1 nM, respectively.

On to `CN1C(=O)CCc2cc(-c3cncc(COc4ccc(F)cn4)c3)ccc21` [Example 2, 6-[5-(5-Fluoro-pyridin-2-yloxymethyl)-pyridin-3-yl]-1-methyl-3,4-dihydro-1H-quinolin-2-one], for which the EC50 at human CYP11B2 came out at 0.2 nM; on human CYP11B1, 6.3 nM.

Consider `Cc1cccc(OCc2cncc(-c3ccc4c(c3)CCC(=O)N4C)c2)n1` [Example 3, 1-Methyl-6-[5-(6-methyl-pyridin-2-yloxymethyl)-pyridin-3-yl]-3,4-dihydro-1H-quinolin-2-one], for which the EC50 turned out to be 0.1 nM on human CYP11B2 and 4.8 nM on human CYP11B1.

As to `Cc1cc(OCc2cncc(-c3ccc4c(c3)CCC(=O)N4C)c2)nc(C(F)(F)F)c1` [Example 4, 1-Methyl-6-[5-(4-methyl-6-trifluoromethyl-pyridin-2-yloxymethyl)-pyridin-3-yl]-3,4-dihydro-1H-quinolin-2-one], the results for the EC50 at human CYP11B2 and on human CYP11B1 were 0.4 nM and 3.6 nM, respectively.

For the compound `Cc1ccnc(OCc2cncc(-c3ccc4c(c3)CCC(=O)N4C)c2)c1` [Example 5, 1-Methyl-6-[5-(4-methyl-pyridin-2-yloxymethyl)-pyridin-3-yl]-3,4-dihydro-1H-quinolin-2-one], the values for the EC50 on human CYP11B2 and at human CYP11B1 were 0.1 nM and 1.7 nM, respectively.

For the compound `CN1C(=O)CCc2cc(-c3cncc(COc4ccc(Cl)cn4)c3)ccc21` [Example 6, 6-[5-(5-Chloro-pyridin-2-yloxymethyl)-pyridin-3-yl]-1-methyl-3,4-dihydro-1H-quinolin-2-one], the EC50 at human CYP11B2 came out at 0.1 nM; on human CYP11B1, 1.9 nM.

As to `CN1C(=O)CCc2cc(-c3cncc(COc4ccccn4)c3)ccc21` [Example 7, 1-Methyl-6-[5-(pyridin-2-yloxymethyl)-pyridin-3-yl]-3,4-dihydro-1H-quinolin-2-one], the values for the EC50 on human CYP11B2 and on human CYP11B1 were 0.2 nM and 8.7 nM, respectively.

On to `CN1C(=O)CCc2cc(-c3cncc(COc4ncccc4C(F)(F)F)c3)ccc21` [Example 8, 1-Methyl-6-[5-(3-trifluoromethyl-pyridin-2-yloxymethyl)-pyridin-3-yl]-3,4-dihydro-1H-quinolin-2-one], for which the EC50 stood at 2.3 nM on human CYP11B2 and 72.8 nM on human CYP11B1.

For the compound `Cc1nccc(OCc2cncc(-c3ccc4c(c3)CCC(=O)N4C)c2)n1` [Example 9, 1-Methyl-6-[5-(2-methyl-pyrimidin-4-yloxymethyl)-pyridin-3-yl]-3,4-dihydro-1H-quinolin-2-one], the results for the EC50 on human CYP11B2 and on human CYP11B1 were 0.1 nM and 4.2 nM, respectively.

On to `CN1C(=O)CCc2cc(-c3cncc(COc4ccnc(C(F)(F)F)n4)c3)ccc21` [Example 10, 1-Methyl-6-[5-(2-trifluoromethyl-pyrimidin-4-yloxymethyl)-pyridin-3-yl]-3,4-dihydro-1H-quinolin-2-one], for which the EC50 turned out to be 0.3 nM on human CYP11B2 and 12.3 nM at human CYP11B1.

As to `CN1C(=O)CCc2cc(-c3cncc(COc4cnc(Cl)nc4)c3)ccc21` [Example 11, 6-[5-(2-Chloro-pyrimidin-5-yloxymethyl)-pyridin-3-yl]-1-methyl-3,4-dihydro-1H-quinolin-2-one], the figures for the EC50 on human CYP11B2 and on human CYP11B1 were 0.1 nM and 0.8 nM, respectively.

For the compound `CN1C(=O)CCc2cc(-c3cncc(COc4ncccn4)c3)ccc21` [Example 12, 1-Methyl-6-[5-(pyrimidin-2-yloxymethyl)-pyridin-3-yl]-3,4-dihydro-1H-quinolin-2-one], the EC50 at human CYP11B2 is 3.6 nM; at human CYP11B1, 101 nM.

`CN1C(=O)CCc2cc(-c3cncc(CSc4nc5ccccc5o4)c3)ccc21` [Example 13, 6-[5-(Benzooxazol-2-ylsulfanylmethyl)-pyridin-3-yl]-1-methyl-3,4-dihydro-1H-quinolin-2-one]: the EC50 on human CYP11B2 was determined as 0.3 nM; on human CYP11B1, 0.9 nM.

In the case of `Cc1cccc(SCc2cncc(-c3ccc4c(c3)CCC(=O)N4C)c2)n1` [Example 14, 1-Methyl-6-[5-(6-methyl-pyridin-2-ylsulfanylmethyl)-pyridin-3-yl]-3,4-dihydro-1H-quinolin-2-one], the EC50 at human CYP11B2 was 0.012 nM; at human CYP11B1 it was 0.1 nM.

Turning to `CN1C(=O)CCc2cc(-c3cncc(CSc4ncccc4C(F)(F)F)c3)ccc21` [Example 15, 1-Methyl-6-[5-(3-trifluoromethyl-pyridin-2-ylsulfanylmethyl)-pyridin-3-yl]-3,4-dihydro-1H-quinolin-2-one], the EC50 at human CYP11B2 came out at 0.5 nM; at human CYP11B1, 14.3 nM.

In the case of `CN1C(=O)CCc2cc(-c3cncc(CSc4ncccc4Cl)c3)ccc21` [Example 16, 6-[5-(3-Chloro-pyridin-2-ylsulfanylmethyl)-pyridin-3-yl]-1-methyl-3,4-dihydro-1H-quinolin-2-one], the values for the EC50 at human CYP11B2 and at human CYP11B1 were 1.4 nM and 45.7 nM, respectively.

For the compound `CN1C(=O)CCc2cc(-c3cncc(COc4cc(C#N)ccn4)c3)ccc21` [Example 17, 2-[5-(1-Methyl-2-oxo-1,2,3,4-tetrahydro-quinolin-6-yl)-pyridin-3-ylmethoxy]-isonicotinonitrile], the EC50 on human CYP11B2 was found to be 0.2 nM; on human CYP11B1, 0.9 nM.

With `CN1C(=O)CCc2cc(-c3cncc(COc4cccc(F)n4)c3)ccc21` [Example 18, 6-[5-(6-Fluoro-pyridin-2-yloxymethyl)-pyridin-3-yl]-1-methyl-3,4-dihydro-1H-quinolin-2-one], the EC50 stood at 0.3 nM at human CYP11B2 and 7.5 nM on human CYP11B1.

With `CN1C(=O)CCc2cc(-c3cncc(COc4ncccc4F)c3)c(F)cc21` [Example 19, 7-Fluoro-6-[5-(3-fluoro-pyridin-2-yloxymethyl)-pyridin-3-yl]-1-methyl-3,4-dihydro-1H-quinolin-2-one], the concentration giving a half-maximal response (EC50) on human CYP11B2 came out at 14.1 nM; on human CYP11B1 it was 997 nM.

In the case of `CN1C(=O)CCc2cc(-c3cncc(COc4ccc(Cl)cn4)c3)c(F)cc21` [Example 20, 6-[5-(5-Chloro-pyridin-2-yloxymethyl)-pyridin-3-yl]-7-fluoro-1-methyl-3,4-dihydro-1H-quinolin-2-one], the EC50 at human CYP11B2 was 0.1 nM; on human CYP11B1, 1.6 nM.

For `CN1C(=O)CCc2cc(-c3cncc(COc4cccc(Cl)n4)c3)c(F)cc21` [Example 21, 6-[5-(6-Chloro-pyridin-2-yloxymethyl)-pyridin-3-yl]-7-fluoro-1-methyl-3,4-dihydro-1H-quinolin-2-one], the EC50 at human CYP11B2 amounted to 0.3 nM; at human CYP11B1, 16.3 nM.

In the case of `Cc1cccc(OCc2cncc(-c3cc4c(cc3F)N(C)C(=O)CC4)c2)n1` [Example 22, 7-Fluoro-1-methyl-6-[5-(6-methyl-pyridin-2-yloxymethyl)-pyridin-3-yl]-3,4-dihydro-1H-quinolin-2-one], the EC50 was determined as 2 nM at human CYP11B2 and 216 nM at human CYP11B1.

With `Cc1ccnc(OCc2cncc(-c3cc4c(cc3F)N(C)C(=O)CC4)c2)c1` [Example 23, 7-Fluoro-1-methyl-6-[5-(4-methyl-pyridin-2-yloxymethyl)-pyridin-3-yl]-3,4-dihydro-1H-quinolin-2-one], the EC50 on human CYP11B2 stood at 0.1 nM; at human CYP11B1, 4.1 nM.

As to `Cc1cccc(OCc2cncc(-c3cc4c(cc3F)N(C)C(=O)CC4)c2C)n1` [Example 24, 7-Fluoro-1-methyl-6-[4-methyl-5-(6-methyl-pyridin-2-yloxymethyl)-pyridin-3-yl]-3,4-dihydro-1H-quinolin-2-one], the EC50 at human CYP11B2 came to 0.7 nM; at human CYP11B1, 105 nM.

With `Cc1c(COc2cccc(Cl)n2)cncc1-c1cc2c(cc1F)N(C)C(=O)CC2` [Example 25, 6-[5-(6-Chloro-pyridin-2-yloxymethyl)-4-methyl-pyridin-3-yl]-7-fluoro-1-methyl-3,4-dihydro-1H-quinolin-2-one], the EC50 on human CYP11B2 worked out at 1.3 nM; on human CYP11B1, 116 nM.

In the case of `Cc1c(COc2ncccc2F)cncc1-c1cc2c(cc1F)N(C)C(=O)CC2` [Example 26, 7-Fluoro-6-[5-(3-fluoro-pyridin-2-yloxymethyl)-4-methyl-pyridin-3-yl]-1-methyl-3,4-dihydro-1H-quinolin-2-one], the EC50 amounted to 5 nM at human CYP11B2 and 866 nM on human CYP11B1.
